Reference: patent US7030265B2, “Retinol derivatives, the method of preparations and the uses thereof” (Chebigen, Inc., priority 2001, dated 2006)

Assays:
Assay type in all cases: cell-based
[1] = system: activation protein-1 (AP-1); test: Activity inhibition test of AP-1, Coll-CAT reporter in Cos-1 cells; settings: expression level in the presence of c-Jun expression set as 100%
Excerpt: CAT reporter (Coll-CAT) containing collagen promoter including AP-1 transcription factor binding site (TRE) was utilized to transfect Cos-1 cell line. Activity inhibition tests of activation protein-1 (AP-1) similar to the experimental example 6 were proceeded.

[2] = target: T1, retinoic acid receptor α (Homo sapiens, UniProt P10276); test: RAR activity test, DR5-tk-CAT reporter in HaCAT cells; settings: 1 μM, CAT ELISA, FIG. 2 (A)
T1 construct: expressed in transfected cells; b135 says HaCAT
T1 sequence (P10276 1-462): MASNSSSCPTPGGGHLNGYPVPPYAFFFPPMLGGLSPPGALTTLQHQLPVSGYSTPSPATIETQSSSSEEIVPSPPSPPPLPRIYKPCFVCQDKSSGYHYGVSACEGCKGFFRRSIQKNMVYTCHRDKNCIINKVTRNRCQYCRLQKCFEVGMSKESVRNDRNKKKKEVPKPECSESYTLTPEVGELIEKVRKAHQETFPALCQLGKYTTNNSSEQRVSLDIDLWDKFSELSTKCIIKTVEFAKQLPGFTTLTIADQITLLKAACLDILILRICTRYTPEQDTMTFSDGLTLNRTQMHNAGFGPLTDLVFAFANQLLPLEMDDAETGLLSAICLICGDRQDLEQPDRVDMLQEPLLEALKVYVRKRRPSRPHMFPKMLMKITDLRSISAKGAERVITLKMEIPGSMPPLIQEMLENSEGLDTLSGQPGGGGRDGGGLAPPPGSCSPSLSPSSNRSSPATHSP
Excerpt: (§1) To analyze the effects of retinol-(N-formyl-aspartam) on the activity of retinoic acid receptor, skin cancer (HaCAT) cell lines were utilized to measure the activity of retinoic acid receptor/retinoid X receptor.
(§2) Recombinant DNA, DR5-tk-CAT or DR1-tk-CAT consisting of DR1 or DR5, effectors of retinoic acid receptor/retinoid X receptor, thymine kinase promoter, and CAT(chloramphenicol acetyl transferase) were mixed with the plasmid DNA expressing retinoic acid receptor α, β, ? or retinoid X receptor α, β, ? to cotransfect skin cancer (HaCAT) cell line with lipofectamine (GibcoBRL). The cotransfected cell lines were cultured for 1 day on DMEM/10% FBS media, each retinol derivatives (1 μM) were added and cultured for one more day, 5% CO2, 37° C. The cells were washed with phosphate-buffered saline (PBS), and the proteins were isolated from each cells, and the activity of β-galactosidase and protein contents were measured to determine transfection efficacy, the transcription level of RAR or RXR receptor were measured with CAT ELISA (Roche Molecular Biochemical, Mannheim, Germany).
(§3) To determine the effect of retinol-(N-formyl-aspartam) on retinoic acid receptors, each retinoic acid receptor (α, β, or ? ) expression vector and activity measuring DR5-tk-CAT plasmid were introduced with liposome. After treating cells with retinol-(N-formyl-aspartam), the cell extracts were isolated. The expression level of CAT were measured with CAT ELISA to determine the effect of retinol-(N-formyl-aspartam) on the activity of retinoic acid receptors.

[3] = target: T2, retinoic acid receptor γ (Homo sapiens, UniProt P13631); test: as above; settings: 1 μM, CAT ELISA, FIG. 2 (A)
T2 construct: expressed in transfected cells; b135 says HaCAT
T2 sequence (P13631 1-454): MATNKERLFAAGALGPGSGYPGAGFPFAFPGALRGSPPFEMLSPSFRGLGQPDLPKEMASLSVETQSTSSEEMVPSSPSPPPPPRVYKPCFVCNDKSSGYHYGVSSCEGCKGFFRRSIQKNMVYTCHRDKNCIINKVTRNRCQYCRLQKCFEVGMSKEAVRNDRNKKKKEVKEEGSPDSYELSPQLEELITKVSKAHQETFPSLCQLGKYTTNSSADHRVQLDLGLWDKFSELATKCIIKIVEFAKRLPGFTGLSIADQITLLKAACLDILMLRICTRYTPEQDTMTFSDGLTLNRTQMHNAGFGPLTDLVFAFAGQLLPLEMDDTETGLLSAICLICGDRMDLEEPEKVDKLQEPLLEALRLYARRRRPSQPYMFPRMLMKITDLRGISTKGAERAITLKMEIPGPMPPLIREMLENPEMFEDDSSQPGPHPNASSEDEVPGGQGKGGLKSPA
Excerpt: as §1, §2, §3

[4] = target: T3, retinoic acid receptor β (Homo sapiens, UniProt P10826); test: as above; settings: 1 μM, CAT ELISA, FIG. 2 (A)
T3 construct: expressed in transfected cells; b135 says HaCAT
T3 sequence (P10826 1-455): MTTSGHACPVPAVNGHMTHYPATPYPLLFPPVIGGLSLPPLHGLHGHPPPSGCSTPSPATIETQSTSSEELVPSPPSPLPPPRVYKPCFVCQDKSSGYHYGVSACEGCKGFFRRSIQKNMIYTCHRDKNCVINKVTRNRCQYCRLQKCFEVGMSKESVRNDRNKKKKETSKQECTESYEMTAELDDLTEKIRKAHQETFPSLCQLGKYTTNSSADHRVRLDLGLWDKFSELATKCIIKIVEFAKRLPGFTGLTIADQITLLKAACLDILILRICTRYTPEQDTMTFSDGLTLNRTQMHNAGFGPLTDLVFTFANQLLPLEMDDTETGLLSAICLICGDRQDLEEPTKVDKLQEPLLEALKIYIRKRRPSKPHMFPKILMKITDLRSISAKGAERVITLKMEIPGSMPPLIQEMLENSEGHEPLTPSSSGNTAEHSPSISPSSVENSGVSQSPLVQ
Excerpt: as §1, §2, §3

[5] = system: activation protein-1 (AP-1); test: Activity inhibition test of AP-1, Coll-CAT reporter in HaCAT cells; settings: c-Jun expression, in the presence of retinoic acid receptor α, CAT ELISA, FIG. 6
Description: Since the activation protein-1 (c-Jun is the constituent of AP-1) is transcription factor inducing expression of collagenase enzyme, which is a major cause of skin wrinkle, the effect of wrinkle prevention was determined by the activity inhibition test of AP-1.
CAT reporter (Coll-CAT) containing collagen promoter including AP-1 transcription factor binding site (TRE) were utilized to cotransfect skin cancer (HaCAT) cell line. The effect of retinol derivatives on the activity of AP-1 was measured by CAT ELISA. In some cases, the vector expressing c-Jun or retinoic acid receptors were utilized to cotransfect, and the effect of retinol derivatives on the transcription activity of c-Jun was analyzed.
With the assumption of the prepared retinol-(N-formyl-aspartam) derivatives which inhibit the activity of AP-1 causing skin wrinkle, would have the utility for cosmetics, the related investigations were proceeded. Similar to the experiment of retinoic acid receptor, AP-1 (c-jun) expression vector and Coll-CAT plasmid for the activity measurement were introduced into the skin cancer (HaCAT) cell line with liposome. After treating the cells with retinol-(N-formyl-aspartam) derivatives, the cell extracts were isolated. The expression level of CAT were measured with CAT ELISA to determine the effect of retinol-(N-formyl-aspartam) on the activity of the AP-1.

In the case of COC(=O)C(Cc1ccccc1)NC(=O)[C@H](CC(=O)OC/C=C(C)/C=C/C=C(C)/C=C/C1=C(C)CCCC1(C)C)NC=O (stereo partly drawn) [retinol-(N-formyl-aspartam), (2E,4E,6E,8E)-3,7-dimethyl-9-(2,6,6-trimethyl-1-cyclohexenyl)-2,4,6,8-nonatetraenyl(3S)-4-[(1-benzyl-2-methoxy-2-oxoethyl)amino]-3-formylamino-4-oxobutanoate], the “lowered the expression of collagenase (Coll-CAT)” value [1] is reported as “approximately 42%”, the “activation of retinoic acid receptor α” value [2] is reported as “high activation” and the “activation of retinoic acid receptor γ” value [3] is reported as “weak activation”. For the same molecule, the “activation of retinoic acid receptor β” value [4] was “weak activation” and the “lowered the expression of collagenase (Coll-CAT)” value [5] was ~44%.
